# The supplement of paper PMC11208160
# Assay: recombinant barcode read abundance after kanamycin selection (control-corrected) (log10(CPM+1)); higher = more efficient recombination; sequences stand for … in AGTGCAGAGAAAATCGGCCAGTTTTCTCTGCCTGCAGTCCGCATGCCGT…AGATTTATGCAGCGGACTGCCTTTCTCCCAAAGTGATAAACCGGACAGTATCATGGACCGGTTTTCCCGGTAATCCGTATTTGCAAGGTTGGTTTCACT; site = the 11-nt target
# Method in brief: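 Targets were screened in pooled form in E. coli against IS621 bridge RNA target-binding loops. Recombination efficiency is based on barcode counts at recombinant junctions in counts per million, averaged and corrected for the control. Numbers are shown as log10(CPM+1), with duplicate plates on chloramphenicol/ampicillin LB agar (control) or chloramphenicol/ampicillin/kanamycin with 0.1 mM IPTG.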
# 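Also: IS621 recombinase and bridge RNA in Escherichia coli cells.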
row,Sequence,recombinant barcode read abundance (log10)
1,GGGCAACCTTGGGTTCTAACCTGTTGCGT (site GGGCAACCTAC),2.84
2,GGGCAACCTTGGGTTCTAACCTGTTGCGT (site GGGCAGCCTAG),0.117
3,GGGCACACTTGGGTTCTAACCTGTTGCAC (site CTTGCATCTAG),0.244
4,GGGCACACTTGGGTTCTAACCTGTTGCAC (site GGGCACACTGT),2.52
5,GGGCACACTTGGGTTCTAACCTGTTGCCA (site GGGAACACTTG),0.193
6,GGGCACACTTGGGTTCTAACCTGTTGCCA (site GGGCACACTTG),0.698
7,GGGCATCCTTGGGTTCTAACCTGTTGCAT (site GGGCATCCTAT),1.82
8,GGGCATCCTTGGGTTCTAACCTGTTGCAT (site TCATTAGCTCG),0.246
9,GGGCCCGCTTGGGTTCTAACCTGTTGCGG (site GGACGCGCTCC),0.111
10,GGGCCCGCTTGGGTTCTAACCTGTTGCGG (site GGGCCCGCTCC),1.29
11,GGGCCTACTTGGGTTCTAACCTGTTGCTA (site GGGCCTACTAA),0.0406
12,GGGCCTACTTGGGTTCTAACCTGTTGCTA (site GGGCCTACTCA),0.642
13,GGGCCTACTTGGGTTCTAACCTGTTGCTA (site GGGCCTACTGA),0.482
14,GGGCCTACTTGGGTTCTAACCTGTTGCTA (site GGGCCTACTTA),1.36
15,GGGCCTACTTGGGTTCTAACCTGTTGCTG (site GGGCCTACTAA),0.165
16,GGGCCTACTTGGGTTCTAACCTGTTGCTG (site GGGCCTACTCA),2.06
17,GGGCCTACTTGGGTTCTAACCTGTTGCTG (site GGGCCTACTGA),0.215
18,GGGCCTACTTGGGTTCTAACCTGTTGCTG (site GGGCCTACTTA),0.121
19,GGGGAATCTTGGGTTCTAACCTGTTGCAT (site GGGGAATCTAT),1.96
20,GGGGAATCTTGGGTTCTAACCTGTTGCAT (site GGGGACTCTGT),0.079
21,GGGGACTCTTGGGTTCTAACCTGTTGCAC (site GGGGAATCTAT),0.0994
22,GGGGACTCTTGGGTTCTAACCTGTTGCAC (site GGGGACTCTGT),3.1
23,GGGGCACCTTGGGTTCTAACCTGTTGCTA (site GGGGCACCTTA),2.35
24,GGGGCACCTTGGGTTCTAACCTGTTGCTA (site TGGGCACCTAA),0.128
25,GGGGCGCCTTGGGTTCTAACCTGTTGCCT (site GGGGCGACTAG),0.44
26,GGGGCGCCTTGGGTTCTAACCTGTTGCCT (site GGGGCGCCTAG),1.76

row,Sequence,recombinant barcode read abundance (log10)
1,GGGGCGCCTTGGGTTCTAACCTGTTGCCT (site GGGGCGGCTAG),0
2,GGGGCGCCTTGGGTTCTAACCTGTTGCCT (site GGGGCGTCTAG),0.279
3,GGGGTGTCTTGGGTTCTAACCTGTTGCCG (site ATTTAACCTAC),0.0514
4,GGGGTGTCTTGGGTTCTAACCTGTTGCCG (site GGGGTGTCTCG),0.675
5,GGGGTGTCTTGGGTTCTAACCTGTTGCTG (site GGGCTGTCTAA),0.448
6,GGGGTGTCTTGGGTTCTAACCTGTTGCTG (site GGGGTGTCTCA),0.413
7,GGGGTTCCTTGGGTTCTAACCTGTTGCAT (site GGGGTTCCTAA),0.164
8,GGGGTTCCTTGGGTTCTAACCTGTTGCAT (site GGGGTTCCTAC),0.129
9,GGGGTTCCTTGGGTTCTAACCTGTTGCAT (site GGGGTTCCTAG),1.19
10,GGGGTTCCTTGGGTTCTAACCTGTTGCAT (site GGGGTTCCTAT),2.47
11,GGGTCACCTTGGGTTCTAACCTGTTGCGG (site CCAAAGACTAA),0.564
12,GGGTCACCTTGGGTTCTAACCTGTTGCGG (site GGGTCACCTCC),2.8
13,GGGTCCACTTGGGTTCTAACCTGTTGCGG (site GGGTCCACTCC),2.02
14,GGGTCCACTTGGGTTCTAACCTGTTGCGG (site GGGTCCACTTG),0.143
15,GGGTCGCCTTGGGTTCTAACCTGTTGCTT (site CGGCCGCCTAA),0.364
16,GGGTCGCCTTGGGTTCTAACCTGTTGCTT (site GGGTCGCCTAA),0.128
17,GGGTCGGCTTGGGTTCTAACCTGTTGCGT (site GGGTCGGCTAC),2.68
18,GGGTCGGCTTGGGTTCTAACCTGTTGCGT (site GGGTCGGCTCC),0.076
19,GGGTCGGCTTGGGTTCTAACCTGTTGCGT (site GGGTCGGCTGC),0.347
20,GGGTCGGCTTGGGTTCTAACCTGTTGCGT (site GGGTCGGCTTC),0.0402
21,GGGTCTTCTTGGGTTCTAACCTGTTGCAT (site GGGACTTCTAT),0.0343
22,GGGTCTTCTTGGGTTCTAACCTGTTGCAT (site GGGCCTTCTAT),0.152
23,GGGTCTTCTTGGGTTCTAACCTGTTGCAT (site GGGGCTTCTAT),0.0588
24,GGGTCTTCTTGGGTTCTAACCTGTTGCAT (site GGGTCTTCTAT),0.575
25,GGGTTTGCTTGGGTTCTAACCTGTTGCCT (site GAGTTTGCTAG),0
26,GGGTTTGCTTGGGTTCTAACCTGTTGCCT (site GCGTTTGCTAG),0.0869

row,Sequence,recombinant barcode read abundance (log10)
1,GGGTTTGCTTGGGTTCTAACCTGTTGCCT (site GGGTTTGCTAG),1.14
2,GGGTTTGCTTGGGTTCTAACCTGTTGCCT (site GTGTTTGCTAG),0.667
3,GGTACTACTTGGGTTCTAACCTGTTGCAT (site CGTACTACTGT),0.0302
4,GGTACTACTTGGGTTCTAACCTGTTGCAT (site GGTACTACTAT),0.54
5,GGTAGATCTTGGGTTCTAACCTGTTGCTT (site GGTAGATCTAA),0.599
6,GGTAGATCTTGGGTTCTAACCTGTTGCTT (site GGTAGGCCTAA),0.0553
7,GGTCAAACTTGGGTTCTAACCTGTTGCCT (site GGTCAAACTAG),0.492
8,GGTCAAACTTGGGTTCTAACCTGTTGCCT (site GGTCCAACTAG),0.0951
9,GGTCAAACTTGGGTTCTAACCTGTTGCCT (site GGTCGAACTAG),0.109
10,GGTCAAACTTGGGTTCTAACCTGTTGCCT (site GGTCTAACTAG),0.0309
11,GGTCAACCTTGGGTTCTAACCTGTTGCGG (site GGTCAACCTCC),2.5
12,GGTCAACCTTGGGTTCTAACCTGTTGCGG (site TACTCTTCTAG),0.113
13,GGTCATACTTGGGTTCTAACCTGTTGCCT (site GGTCATACTAG),0.455
14,GGTCATACTTGGGTTCTAACCTGTTGCCT (site GGTCATCCTAG),0.0309
15,GGTCATACTTGGGTTCTAACCTGTTGCCT (site GGTCATGCTAG),0.074
16,GGTCATACTTGGGTTCTAACCTGTTGCCT (site GGTCATTCTAG),0.246
17,GGTCCTCCTTGGGTTCTAACCTGTTGCGA (site GGTCCTCCTTC),0.847
18,GGTCCTCCTTGGGTTCTAACCTGTTGCGA (site TCCTAGTCTCT),0.229
19,GGTCGCGCTTGGGTTCTAACCTGTTGCCT (site GGTCGAGCTAG),0.113
20,GGTCGCGCTTGGGTTCTAACCTGTTGCCT (site GGTCGCGCTAG),0.535
21,GGTCGCGCTTGGGTTCTAACCTGTTGCCT (site GGTCGGGCTAG),0.832
22,GGTCGCGCTTGGGTTCTAACCTGTTGCCT (site GGTCGTGCTAG),0.0211
23,GGTGACCCTTGGGTTCTAACCTGTTGCAT (site GGTGACCCTAT),2.75
24,GGTGACCCTTGGGTTCTAACCTGTTGCAT (site TCGTGAGCTCA),0.97
25,GGTGACCCTTGGGTTCTAACCTGTTGCGG (site GGTAACCCTCC),2.05
